According to patent publication US8106004B2, “Methods of inhibiting tumor cell aggressiveness using the microenvironment of human embryonic stem cells” (Children's Memorial Hospital, priority 2006, dated 2012):

What was measured:
Assay type in all cases: cell-based, human
C8161 cells [1] = test: Vasculogenic mimicry and plasticity biomarkers in C8161 cells with ALK 4/5/7 inhibitor; conditions: C8161, ALK 4/5/7 inhibitor
Procedure: (A) Western blot analyses of Nodal, phosphorylated SMAD-2, total SMAD 2/3, and Actin in C8161 cells 48 hours after administration of either vehicle or an ALK 4/5/7 inhibitor (SB431542, 1 μM, 10 μM). […] (B) Western blot analyses of Nodal, Tyrosinase and Actin in C8161 cells 24 hours after the administration of either vehicle or different concentrations of ALK inhibitor while (C) is a Western analyses for VE-Cadherin, Keratin 18 and Actin in C8161 cells cultured on 3-D collagen I matrices for 6 days in the presence of vehicle or different concentrations of ALK inhibitor.

Nodal = Nodal expression in C8161 cells (Western blot, real time RT-PCR); conditions: C8161, ALK 4/5/7 inhibitor 1 μM, 10 μM
Procedure: A determination of the effects of H9 CMTX on Nodal expression in metastatic melanoma (C8161) and breast carcinoma (MDA-MB-231) cells was undertaken. […] Exposure to H9 CMTX similarly abrogates Nodal mRNA expression in the melanoma and breast carcinoma cells (FIG. 9C).
Protein lysates were prepared and quantified as previously described in Hess et al., 2001, Cancer Res. 61:3250-3255. Equal amounts of protein were separated by SDS-polyacrylamide gel electrophoresis under reducing conditions, and the resolved proteins were transferred onto Immobilon-P membranes (Millipore Corp., Bedford, Mass.). Membranes were blocked in 1% TBS, 0.1% Tween 20 (TBS-T) and 5% dry milk powder or 3% gelatin (for Nodal Westerns). Blots were incubated with anti-Nodal or anti-Lefty antibodies (Polyclonal rabbit anti-Nodal (H-110) 1:500 Santa Cruz Biotechnology, Santa Cruz, Calif.; Polyclonal goat anti-Lefty 1:500 R&D Systems, Minneapolis, Minn.), washed in TBS-T, and incubated with the appropriate horseradish peroxidase-labeled secondary antibody. Secondary antibodies were detected by enhanced chemiluminescence (Super Signal; Pierce, Rockford, Ill.) and exposure to autoradiography film (Molecular Technologies, St Louis, Mo.). Nodal protein was detected as two major bands at ˜48 and ˜35 kDa representing precursor and pro-Nodal respectively. Nodal often appeared as multiple bands, likely due to degradation of protein modifications. All experiments were done at least three times.
The derivation and phenotypic characteristics of the human melanoma cell lines have been previously described. Seftor, et. al., 2002, Clin. Experim. Metastas. 19:233-246; Seftor, et. al., 2005 Cancer Res. 65:10164-10169. The melanoma cell lines are maintained in RPMI 1640 medium (Invitrogen) supplemented with 10% fetal bovine serum (FBS, Gemini Bioproducts) and 0.1% gentamycin sulfate with the exception of C81-61 cells which are maintained in Ham's FIO medium supplemented with 15% FBS, 1X Mito+ (BD Bioscience) and gentamycin sulfate. […] The cultures are determined to be free of mycoplasma contamination using a PCR-based assay (Roche). […]

Notch = test: Western blot analysis of Notch 1, 2 and 4 in C8161 cells; conditions: C8161 treated with Nodal inhibitor
From the text: Western blot analysis of C8161 cells 72 hrs following the administration of siRNA. […] Western blot analysis of Notch 1, 2 and 4 in C8161 cells treated with the Nodal inhibitor SB431542.

C8161 cells [2] = test: MICS (Membrane Invasion Culture System) invasion assay; conditions: C8161, ALK 4/5/7 inhibitor
Procedure: (A) Invasion of C8161 cells following culture on unconditioned Matrigel (Control) or Matrigel preconditioned by either H1 or HSF-6 hESCs was calculated as a percentage of cells able to invade through a defined matrix (collagen IV, laminin, and gelatin)-coated membrane during a 24 hour period using the MICS (Membrane Invasion Culture System) assay. Bars represent the mean, normalized, invasion indices±standard deviations. […] (B) In vivo tumor formation in a mouse injected with C8161 cells pre-exposed for 3 days to either a control matrix (Matrigel) or a matrix conditioned by hESCs (H9 CMTX) (n=21).
The aggressiveness of tumor cells is correlated with their ability to invade through the extracellular matrix; thus, the effect of hESC microenvironments on melanoma cell invasion was investigated.
The derivation and phenotypic characteristics of the human melanoma cell lines have been previously described. Seftor, et. al., 2002, Clin. Experim. Metastas. 19:233-246; Seftor, et. al., 2005 Cancer Res. 65:10164-10169. […] The cultures are determined to be free of mycoplasma contamination using a PCR-based assay (Roche). […]

SMILES: NC(=O)c1ccc(-c2nc(-c3ccc4c(c3)OCO4)c(-c3ccccn3)[nH]2)cc1 [SB431542]
- expression of vasculogenic mimicry plasticity biomarkers (Western blot) (C8161 cells [1]): reduction
- vasculogenic mimicry (C8161 cells [1]): abrogation of vasculogenic mimicry
- Nodal expression (Western blot) (Nodal): down-regulation of Nodal
- Notch expression (Western blot) (Notch): relatively unaffected
- invasive ability (C8161 cells [2]): reduction in invasive ability
